One data set relates to CCRF-CEM cells. In words: Cell viability assay (CellTiter-Glo) in CCRF-CEM cells. The settings on record: Homo sapiens, 72 h, T-ALL, 3 days. The class given is cell-based. On the procedure: (§1) MV4;11, RS4;11, Kasumi-1, HEL and other cells were treated with NVP-BSK805, TG101209 or selected degraders for 3 days at indicated concentrations following a 3-fold serial dilution.
(§2) HEL, RS4;11, MV4;11, Kasumi-1 and other cells were cultured at 37° C. with 5% CO2 in RPMI 1640 or DMEM Medium supplemented with 10% fetal bovine serum. Cells were authenticated using the short tandem repeat (STR) assays. Mycoplasma test results were negative.
(§3) Cells were seeded at a density of 5000 cells per well in 96-well assay plates and treated with test compounds following a 8-point or 12-point 3-fold serial dilution. Three days later, cell viability was determined using the CellTiter-Glo assay kit according to the manufacturer's instructions. The dose-response curves were determined and IC50 values were calculated using the GraphPad Prism software following a nonlinear regression (least squares fit) method.

The subject of the next data set is Jurkat cells. In words: Cell viability assay (CellTiter-Glo) in Jurkat cells. The data set is classed as cell-based. The settings on record: Homo sapiens, 72 h, T-ALL, 3 days. As for the experimental part: as §1, §2, §3
A general note: Cellular ATP, detected with luciferase, serves as a proxy for viable cell number.

The next data set has as its system MV4;11 cells. In words: Cell viability assay (CellTiter-Glo) in MV4;11 cells. The data set is classed as cell-based. The settings on record: for IC50: Homo sapiens, 72 h, MV4;11, AML, cell viability, 3 days; for cell viability inhibition in combination with pomalidomide: MV4;11, 3 days, pomalidomide at 10 μM (FIG. 4). On the procedure:
as §1, §2, §3

The subject of the next data set is Kasumi-1 cells. In words: Cell viability assay (CellTiter-Glo) in Kasumi-1 cells. The class given is cell-based. The settings on record: for IC50: Homo sapiens, 72 h, Kasumi-1, AML, cell viability, 3 days; for cell viability inhibition in combination with pomalidomide: Kasumi-1, 3 days, pomalidomide at 10 μM (FIG. 4). On the procedure:
as §1, §2, §3

Another data set has as its system HL-60 cells. In words: Cell viability assay (CellTiter-Glo) in HL-60 cells. The data set is classed as cell-based. The settings on record: Homo sapiens, 72 h, HL-60, APL, 3 days. On the procedure:
as §1, §2, §3

The next data set concerns AMO-1 cells. In words: Cell viability assay (CellTiter-Glo) in AMO-1 cells. The class given is cell-based. The settings on record: Homo sapiens, AMO1, 72 h, AMO-1, Multiple Myeloma, 3 days. As for the experimental part: as §1, §2, §3
Another data set deals with MEG-01 cells. In words: Cell viability assay (CellTiter-Glo) in MEG-01 cells. The class given is cell-based. The settings on record: Homo sapiens, 72 h, MEG-01, CML, 3 days. As for the experimental part: as §1, §2, §3
The next data set relates to WSU-DLCL2 cells. In words: Cell viability assay (CellTiter-Glo) in WSU-DLCL2 cells. The settings on record: Homo sapiens, WSUDLCL2, 72 h, WSU-DLCL2, DLBCL, 3 days. The class given is cell-based. As for the experimental part: as §1, §2, §3
For another data set, the system named is Pfeiffer cells. Nature of the data set: Cell viability assay (CellTiter-Glo) in Pfeiffer cells. The data set is classed as cell-based. The settings on record: Homo sapiens, 72 h, DLBCL, 3 days. On the procedure: as §1, §2, §3
A further data set deals with KM12 cells. In words: Cell viability assay (CellTiter-Glo) in KM12 cells. The data set is classed as cell-based. The settings on record: Homo sapiens, 72 h, KM12, colorectal carcinoma, 3 days. As for the experimental part: as §1, §2, §3
For another data set, the system named is keratinocyte HACAT cells. In words: Cell viability of non-cancerous keratinocyte HACAT cells. The data set is classed as cell-based, human. The settings on record: 3 days, 3-fold serial dilution (FIG. 6). On the procedure:
Immortalized human lung fibroblast IMR-90 and keratinocyte HACAT cells were treated with JA-189 or JA-213 for 3 days at indicated concentrations following a 3-fold serial dilution.
as §3

The target in a further data set is T1, JAK1 (Homo sapiens, UniProt P23458).
T1 construct: immunoblot of JAK1/3 proteins expressed in RS4;11 cells; endogenous in cells; host or cells: RS4;11 cells
T1 sequence (P23458 whole entry): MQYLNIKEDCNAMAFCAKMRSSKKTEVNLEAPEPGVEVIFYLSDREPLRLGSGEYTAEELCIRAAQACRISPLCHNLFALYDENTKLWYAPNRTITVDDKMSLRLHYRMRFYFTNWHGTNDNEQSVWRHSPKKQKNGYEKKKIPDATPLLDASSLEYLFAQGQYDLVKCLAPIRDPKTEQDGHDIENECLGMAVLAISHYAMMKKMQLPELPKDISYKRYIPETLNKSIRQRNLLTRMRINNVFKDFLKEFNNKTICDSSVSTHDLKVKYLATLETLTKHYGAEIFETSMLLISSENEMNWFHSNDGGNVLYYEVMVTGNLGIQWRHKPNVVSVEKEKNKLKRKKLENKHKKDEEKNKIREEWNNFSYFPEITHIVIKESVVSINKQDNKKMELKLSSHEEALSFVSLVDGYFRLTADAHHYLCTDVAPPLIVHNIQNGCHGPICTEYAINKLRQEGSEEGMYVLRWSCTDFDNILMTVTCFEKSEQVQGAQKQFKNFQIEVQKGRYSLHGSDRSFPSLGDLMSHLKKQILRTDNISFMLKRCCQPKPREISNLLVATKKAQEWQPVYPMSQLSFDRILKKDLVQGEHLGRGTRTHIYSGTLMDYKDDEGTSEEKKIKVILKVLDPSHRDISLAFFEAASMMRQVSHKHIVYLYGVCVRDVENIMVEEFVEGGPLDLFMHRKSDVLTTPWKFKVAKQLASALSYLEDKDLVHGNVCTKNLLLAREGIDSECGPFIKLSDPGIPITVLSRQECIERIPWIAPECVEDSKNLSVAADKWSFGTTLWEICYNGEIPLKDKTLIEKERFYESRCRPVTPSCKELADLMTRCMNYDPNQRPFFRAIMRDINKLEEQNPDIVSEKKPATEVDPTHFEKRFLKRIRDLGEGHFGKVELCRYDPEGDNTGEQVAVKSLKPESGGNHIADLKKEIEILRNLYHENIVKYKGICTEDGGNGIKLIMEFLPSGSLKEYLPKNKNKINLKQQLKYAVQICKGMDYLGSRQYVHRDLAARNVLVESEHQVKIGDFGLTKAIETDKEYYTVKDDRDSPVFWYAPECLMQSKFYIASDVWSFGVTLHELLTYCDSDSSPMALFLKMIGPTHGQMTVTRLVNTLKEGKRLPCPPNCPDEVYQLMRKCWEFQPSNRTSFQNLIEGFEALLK
Nature of the data set: Immunoblot of JAK1 protein level in HEL cells. The data set is classed as cell-based. The settings on record: 24 hours, immunoblot (FIG. 1). On the procedure: HEL cells harboring JAK2-V617F mutation were treated with compounds at indicated concentrations for 24 hours. […] The concentrations required to reduce JAK2-V617 by 50% (DC50) were below 60 nM for compound JA-213.
as §2
(§4) Rabbit anti-JAK1 antibody (3344S), anti-JAK2 antibody (3230S), anti-JAK3 antibody (8827S), anti-TYK2 antibody (14193S), anti-FLT3 antibody (3462S), anti-RET antibody (14556S), anti-phospho-STAT3 (Tyr705) antibody (9145S) and anti-phospho-STAT5 (Tyr694) antibody (4322S) were purchased from Cell Signaling Technology. Rabbit anti-GSPT1 antibody (ab126090) was purchased from Abcam. HRP-conjugated anti-α-tubulin antibody was produced in house. Media and other cell culture reagents were purchased from Thermo Fisher. The CellTiter-Glo Luminescent Assay kit was purchased from Promega.
(§5) Cultured cells were washed with cold PBS once and lysed in cold RIPA buffer supplemented with protease inhibitors and phosphatase inhibitors (Beyotime Biotechnology). […] Total protein concentrations in the lysates were determined by BCA assays (Beyotime Biotechnology). […] Protein bands were quantitated using the accompanied software provided by Bio-Rad.
In general terms: In western blotting, separated proteins are transferred to a membrane and probed.

In a further data set the test system is p-STAT3. Nature of the data set: Immunoblot of p-STAT3 (downstream signaling) in HEL cells. The settings on record: immunoblot (FIG. 1). The class given is cell-based. On the procedure:
To confirm JA-189 and JA-213 are true JAK degraders, HEL cell were treated with these two compounds at various compounds concentrations.
as §2, §4, §5

SMILES strings stand for the structures.

The IC50 is the point on the concentration scale where inhibition reaches its midpoint. Regarding `O=C1CCC(N2C(=O)c3ccc(NCCCCCC(=O)N4CCC(n5cc(-c6cnc7cccc(-c8cc(F)c(CN9CCOCC9)c(F)c8)c7n6)cn5)CC4)cc3C2=O)C(=O)N1` (stereo not drawn) [JA-189, 5-((6-(4-(4-(8-(3,5-difluoro-4-(morpholinomethyl)phenyl)quinoxalin-2-yl)-1H-pyrazol-1-yl)piperidin-1-yl)-6-oxohexyl)amino)-2-(2,6-dioxopiperidin-3-yl)isoindoline-1,3-dione], the IC50 in the data set on CCRF-CEM cells came to 3.84 nM; with Jurkat cells it was 34.2 nM; in the data set with MV4;11 cells, 7.93 nM; in the data set on Kasumi-1 cells, 86.3 nM; with HL-60 cells, 2.54 nM; with AMO-1 cells, 612 nM. For the same compound, the half-maximal inhibitory concentration (IC50) was 89.2 nM in the data set on MEG-01 cells, 106 nM in the data set with WSU-DLCL2 cells, 320 nM in the data set with Pfeiffer cells and 2370 nM in the data set with KM12 cells. Also, the “cell viability inhibition in combination with pomalidomide” value with MV4;11 cells and with Kasumi-1 cells was “greatly reduce the potencies of the degraders” in each case. In addition, the “sensitivity of non-cancerous cells (cell viability)” value in the data set with keratinocyte HACAT cells is on record as “not sensitive”. Also, the JAK1 protein level result at JAK1 was “able to reduce JAK1, JAK2 and JAK3 protein levels”. Further, the “down stream signaling, p-STAT3 band” value in the data set on p-STAT3 is “weaker bands of p-STAT3 and p-STAT5”.

Take `CS(=O)(=O)c1ccc(-c2cccc3nc(Nc4ccc(N5CCN(CC(=O)NCCCCCCCCNc6ccc7c(c6)C(=O)N(C6CCC(=O)NC6=O)C7=O)CC5)cc4)nn23)cc1` (stereo not drawn) [JA-213]: the IC50 in the data set with CCRF-CEM cells worked out at 19.1 nM; with Jurkat cells it was 62.7 nM; in the data set on MV4;11 cells, 19.6 nM; in the data set on Kasumi-1 cells it was 69.1 nM; in the data set with HL-60 cells it was 19.2 nM; with AMO-1 cells, 722 nM. In addition, the IC50 in the data set on MEG-01 cells stood at 74 nM; in the data set with WSU-DLCL2 cells, 168 nM; in the data set with Pfeiffer cells, 266 nM; in the data set with KM12 cells, 679 nM. Further, the “cell viability inhibition in combination with pomalidomide” value in the data set with MV4;11 cells and in the data set on Kasumi-1 cells was “greatly reduce the potencies of the degraders” throughout. Besides, in the data set with keratinocyte HACAT cells, the “sensitivity of non-cancerous cells (cell viability)” value is given as “not sensitive”. At JAK1, the JAK1 protein level result is “able to reduce JAK1, JAK2 and JAK3 protein levels”. Besides, the “down stream signaling, p-STAT3 band” value in the data set with p-STAT3 is “weaker bands of p-STAT3 and p-STAT5”.

The values are drawn from patent US20230093099A1, “COMPOUNDS AND METHODS OF TREATING CANCERS” (CULLGEN (SHANGHAI), INC., priority 2019, published 2023).
